{"source": "patent US20230010958A1", "about": "“CANNABINOID AND LYCOPENE ANTI-INFLAMMATORY SYNERGISTIC COMBINATIONS” (LYCORED LTD., priority 2019, published 2023)", "key": {"Macrophages": {"test_system": "Macrophages", "assay": "MTT cell viability assay with CBD", "type": "cell-based", "conditions": "increasing CBD concentrations (FIG. 2)", "protocol": "FIG. 2 includes a vertical bar graph showing the effect of CBD on cell viability. MTT assay was performed in the presence of increasing CBD concentrations.\nThe inventors initially examined the sole effect of cannabidiol (CBD) on nitric oxide (NO) production. Macrophages were stimulated, and NO production was examined in the presence of increasing CBD concentrations, ranging from 0.05 µM to 50 µM."}, "[1]": {"test_system": "nitric oxide (NO) production", "assay": "NO production assay in LPS-stimulated peritoneal macrophages (Griess reagent)", "type": "cell-based, mice", "conditions": "CBD alone, 0.05 µM to 50 µM (FIG. 1)", "protocol": "Macrophage isolation and cell culture - Peritoneal macrophages were collected from the peritoneal cavity of 6-8-week-old male ICR mice (Harlan, Israel) given an intraperitoneal injection of 1.5 ml of thioglycollate broth (4%) 4 days before harvest. Peritoneal macrophages were washed three times with PBS and if needed a hypotonic lysis of erythrocytes was performed, yielding 90-95% purity. The macrophages were identified by fluorescence-activated cell sorting (FACS) analysis using FITC-conjugated rat antimouse F4/80 (MCA497F; Serotec, Oxford, England) by flow microfluorimetry on FACS (Becton Dickinson, Mountain View, CA). For each sample, 10,000 light scatter-gated viable cells were analyzed. […]\nTo the control groups, appropriate volumes of DMSO (0.1-0.2%) were added. The percent inhibition of each experimental group was calculated comparatively to the relevant and corresponding control.\nNO production assay —NO levels in supernatants of cell cultures were determined by assaying nitrite levels using Griess reagent and sodium nitrite as a standard.\nPeritoneal macrophages were incubated with the compounds 1 h before addition of LPS and cultured overnight. NO production was determined in the supernatant of the cultures and the % of inhibition from untreated macrophages was determined. […]"}, "nitric oxide (NO)": {"test_system": "nitric oxide (NO)", "assay": "NO production in bone marrow derived macrophages treated with an inflammatory stimulus (lycopene, CBDA)", "type": "cell-based", "conditions": "CBDA alone, 2.5 µM, 5 µM, 10 µM (FIG. 8A)", "protocol": "Bone marrow derived macrophages were treated with an inflammatory stimulus in the presence of various concentration of lycopene, cannabidiolic acid (CBDA), tomato extract and hemp extract in vitro. As an inflammatory outcome, nitric oxide (NO) was monitored.\nFull Study with test material and benchmarks - Cells were treated with tomato and hemp extract for 24 hours to determine viability. Cells were then treated as follows; (1) medium alone (unstimulated control), (2) LPS stimulation- 10 µg/mL, (3) each crude extracts (Tomato/Hemp) at concentration of IC50, (4) LPS + crude extracts, (5) control inhibitor, and (6) LPS + control inhibitor. The tomato and hemp extract and benchmarks (lycopene, CBDA) were tested in 5 different rations; 1:10, 1:5, 1:1, 5:1, 10:1.\nNitric oxide production was determined for each treatment."}}}
{"smiles": "C=C(C)[C@@H]1CCC(C)=C[C@H]1c1c(O)cc(CCCCC)cc1O", "note": "[CBD, 2-[(6R)-3-Methyl-6-prop-l-en-2-yl-lcyclohex-2-envyl]-5pentylbenzene-l,3-diol]", "values": [{"measurement": "CBD concentration toxic to the cells (cell viability, MTT)", "setting": "Macrophages", "result": "≥ 25", "unit": "µM"}, {"measurement": "% of NO production inhibition", "setting": "[1]", "result": "increased in a CBD dose-dependent manner"}]}
{"smiles": "C=C(C)[C@@H]1CCC(C)=C[C@H]1c1c(O)cc(CCCCC)c(C(=O)O)c1O", "note": "[CBDA, cannabidiolic acid]", "values": [{"measurement": "inhibition of NO production", "setting": "nitric oxide (NO)", "result": "inhibits NO production in a dose dependent manner"}]}
